Values after ≈ are worked out from the molar mass of the structure shown.
Assays:
EBV (Daudi Cells) = test: EBV VCA ELISA in superinfected Daudi cells; type: cell-based, Epstein-Barr virus; settings: human gammaherpesvirus 4, 96 h, 4 days
Excerpt: The EBV prototype virus used in the assay of this work was P3HR-1, which is derived from supernatant fluids of the P3HR-1 cell line. This cell line produces nontransforming virus that induces the production of early antigen (EA) and viral capsid antigen (VCA) after primary infection or superinfection of B cell lines. Daudi was the test-cell line, which is a low-level producer that contains 152 EBV genome copies per cell. These cells respond to superinfection by EBV by expressing EA and VCA. The cell line was maintained in RPMI-1640 medium supplemented by 10% FBS, L-glutamine and 100 micrograms per milliliter gentamicin. The cultures were fed twice weekly and the cell concentration adjusted to 3×10^5 cells per milliliter. The cells were kept at 37° C. in a humidified atmosphere with 5% CO2.
Daudi cells were infected and treated with humates as described above for HSV, HCMV, and VZV. The cultures were incubated for 4 days at 37° C. The cells were counted, washed and brought to the desired final concentration. For each dilution of humate, cells were added to triplicate wells of a 96-well plate and air-dried. The cells were then fixed for 20 minutes in an acetic acid/ethanol solution. […] The reaction was stopped by adding 3 Normal sulfuric acid, following which the plates were read on a microplate reader at 492 nanometers.

HSV-2 (HFF Cells) = test: HSV-2 cytoprotection assay in HFF cells (crystal violet); type: cell-based, herpes simplex virus type 2; settings: Human alphaherpesvirus 2, 72 h, 3 days
HSV-1 (HFF Cells) = test: HSV-1 cytoprotection assay in HFF cells (crystal violet); type: cell-based, herpes simplex virus type 1; settings: Human alphaherpesvirus 1, 72 h, 3 days
HCMV (HFF Cells) = test: HCMV cytoprotection assay in HFF cells (crystal violet); type: cell-based, human cytomegalovirus; settings: Human betaherpesvirus 5, 336 h, 14 days

SMILES	IC50 (EBV (Daudi Cells)) [µg/mL]	IC50 (HSV-2 (HFF Cells)) [µg/mL]	IC90 (HSV-2 (HFF Cells)) [µg/mL]	IC50 (HSV-1 (HFF Cells)) [µg/mL]	IC90 (HSV-1 (HFF Cells)) [µg/mL]	IC50 (HCMV (HFF Cells)) [µg/mL]	IC90 (HCMV (HFF Cells)) [µg/mL]
Nc1nc2c(ncn2COCCO)c(=O)[nH]1 [Acyclovir]	1.8 to 2.4 (≈ 7.99 to 10.7 µM)	1.1 to 1.3 (≈ 4.88 to 5.77 µM)	9.5 (≈ 42.2 µM)	1.2 to 1.6 (≈ 5.33 to 7.1 µM)	7.9 (≈ 35.1 µM)		
Nc1nc(O)c2ncn(COC(CO)CO)c2n1 [Ganciclovir]						0.3 to 0.76 (≈ 1.18 to 2.98 µM)	0.6 to 1.3 (≈ 2.35 to 5.09 µM)
